# Reference: ChEMBL document CHEMBL3885881, “DrugMatrix”
# Organism: Rattus norvegicus
# Experiment: DrugMatrix - Regimen: Daily Repeat
# Format: toxicity, organism-based, Sprague-Dawley
# Set-up: regimen Daily Repeat, gender Male, age 6-8 weeks
# Details: in vivo, po, route oral GAVAGE, vehicle 100 % WATER; for ABSOLUTE BASOPHIL / ABSOLUTE EOSINOPHIL / ABSOLUTE LYMPHOCYTE / ABSOLUTE MONOCYTE / ABSOLUTE SEGMENTED NEUTROPHIL / BASOPHIL / EOSINOPHIL / ERYTHROCYTE COUNT / HEMATOCRIT / HEMOGLOBIN / LEUKOCYTE COUNT / LYMPHOCYTE / MEAN CORPUSCULAR HEMOGLOBIN / MEAN CORPUSCULAR HEMOGLOBIN CONCENTRATION / MEAN CORPUSCULAR VOLUME / MONOCYTE / NEUTROPHIL / NUCLEATED RED BLOOD CELLS / PLATELET COUNT: tissue Blood; for ALANINE AMINOTRANSFERASE / ALBUMIN / ALKALINE PHOSPHATASE / ASPARTATE AMINOTRANSFERASE / BLOOD UREA NITROGEN / CARBON DIOXIDE / CHLORIDE / CHOLESTEROL / CREATINE PHOSPHOKINASE / CREATININE / GLUCOSE / LACTATE DEHYDROGENASE / LIPASE / PHOSPHORUS / POTASSIUM / SODIUM / TOTAL BILIRUBIN / TOTAL PROTEIN / URIC ACID: tissue Plasma
# [1] = 0 mg/kg, 72 h, dose level Control, time 3 day
# [2] = 0 mg/kg, 120 h, dose level Control, time 5 day
# [3] = 120 mg/kg, 72 h, dose level Low, time 3 day
smiles,measurement,setting,value
CCN(CC)CCNC(=O)c1cc(S(C)(=O)=O)ccc1OC [TIAPRIDE],ABSOLUTE BASOPHIL,[1],0 CELLS/uL
same,ABSOLUTE EOSINOPHIL,[1],151.33 CELLS/uL
same,ABSOLUTE LYMPHOCYTE,[1],10599.5 CELLS/uL
same,ABSOLUTE MONOCYTE,[1],109.5 CELLS/uL
same,ABSOLUTE SEGMENTED NEUTROPHIL,[1],1139.67 CELLS/uL
same,BASOPHIL,[1],0%
same,EOSINOPHIL,[1],0.83%
same,ERYTHROCYTE COUNT,[1],5.54 x10E6/uL
same,HEMATOCRIT,[1],35.35%
same,HEMOGLOBIN,[1],13.22 G/DL
same,LEUKOCYTE COUNT,[1],12 x10E3/uL
same,LYMPHOCYTE,[1],89%
same,MEAN CORPUSCULAR HEMOGLOBIN,[1],23.88 pg
same,MEAN CORPUSCULAR HEMOGLOBIN CONCENTRATION,[1],37.4 G/DL
same,MEAN CORPUSCULAR VOLUME,[1],63.85 fL
same,MONOCYTE,[1],1%
same,NEUTROPHIL,[1],9.17%
same,NUCLEATED RED BLOOD CELLS,[1],0 /100WBC
same,PLATELET COUNT,[1],1333.33 x10E3/uL
same,ALANINE AMINOTRANSFERASE,[1],53.17 u/L
same,ALBUMIN,[1],4.32 G/DL
same,ALKALINE PHOSPHATASE,[1],404.33 u/L
same,ASPARTATE AMINOTRANSFERASE,[1],83.17 u/L
same,BLOOD UREA NITROGEN,[1],15.67 mg/dL
same,CARBON DIOXIDE,[1],27.33 mmol/L
same,CHLORIDE,[1],101.83 MEQ/L
same,CHOLESTEROL,[1],68.67 mg/dL
same,CREATINE PHOSPHOKINASE,[1],276.17 u/L
same,CREATININE,[1],0.18 mg/dL
same,GLUCOSE,[1],163.5 mg/dL
same,LACTATE DEHYDROGENASE,[1],144.67 u/L
same,LIPASE,[1],8.83 u/L
same,PHOSPHORUS,[1],11.72 mg/dL
same,POTASSIUM,[1],5.99 MEQ/L
same,SODIUM,[1],143.57 MEQ/L
same,TOTAL BILIRUBIN,[1],0.2 mg/dL
same,TOTAL PROTEIN,[1],6.1 G/DL
same,URIC ACID,[1],1.38 mg/dL
same,ABSOLUTE BASOPHIL,[2],0 CELLS/uL
same,ABSOLUTE EOSINOPHIL,[2],248.67 CELLS/uL
same,ABSOLUTE LYMPHOCYTE,[2],12977.83 CELLS/uL
same,ABSOLUTE MONOCYTE,[2],19.67 CELLS/uL
same,ABSOLUTE SEGMENTED NEUTROPHIL,[2],1137.17 CELLS/uL
same,BASOPHIL,[2],0%
same,EOSINOPHIL,[2],1.67%
same,ERYTHROCYTE COUNT,[2],5.82 x10E6/uL
same,HEMATOCRIT,[2],36.35%
same,HEMOGLOBIN,[2],13.58 G/DL
same,LEUKOCYTE COUNT,[2],14.38 x10E3/uL
same,LYMPHOCYTE,[2],90.5%
same,MEAN CORPUSCULAR HEMOGLOBIN,[2],23.32 pg
same,MEAN CORPUSCULAR HEMOGLOBIN CONCENTRATION,[2],37.42 G/DL
same,MEAN CORPUSCULAR VOLUME,[2],62.42 fL
same,MONOCYTE,[2],0.17%
same,NEUTROPHIL,[2],7.67%
same,NUCLEATED RED BLOOD CELLS,[2],0 /100WBC
same,PLATELET COUNT,[2],1337.67 x10E3/uL
same,ALANINE AMINOTRANSFERASE,[2],48.5 u/L
same,ALBUMIN,[2],4.32 G/DL
same,ALKALINE PHOSPHATASE,[2],354.33 u/L
same,ASPARTATE AMINOTRANSFERASE,[2],80 u/L
same,BLOOD UREA NITROGEN,[2],16 mg/dL
same,CARBON DIOXIDE,[2],27.33 mmol/L
same,CHLORIDE,[2],100.33 MEQ/L
same,CHOLESTEROL,[2],68 mg/dL
same,CREATINE PHOSPHOKINASE,[2],325.17 u/L
same,CREATININE,[2],0.23 mg/dL
same,GLUCOSE,[2],172 mg/dL
same,LACTATE DEHYDROGENASE,[2],254.83 u/L
same,LIPASE,[2],8.33 u/L
same,PHOSPHORUS,[2],12.17 mg/dL
same,POTASSIUM,[2],6.28 MEQ/L
same,SODIUM,[2],143.57 MEQ/L
same,TOTAL BILIRUBIN,[2],0.18 mg/dL
same,TOTAL PROTEIN,[2],6.12 G/DL
same,URIC ACID,[2],1.78 mg/dL
same,ABSOLUTE BASOPHIL,[3],0 CELLS/uL
same,ABSOLUTE EOSINOPHIL,[3],161.33 CELLS/uL
same,ABSOLUTE LYMPHOCYTE,[3],8742.33 CELLS/uL
same,ABSOLUTE MONOCYTE,[3],34.33 CELLS/uL
same,ABSOLUTE SEGMENTED NEUTROPHIL,[3],962 CELLS/uL
same,BASOPHIL,[3],0%
same,EOSINOPHIL,[3],1.33%
same,ERYTHROCYTE COUNT,[3],5.57 x10E6/uL
same,HEMATOCRIT,[3],35.07%
same,HEMOGLOBIN,[3],13.23 G/DL
same,LEUKOCYTE COUNT,[3],9.9 x10E3/uL
same,LYMPHOCYTE,[3],88.33%
same,MEAN CORPUSCULAR HEMOGLOBIN,[3],23.77 pg
same,MEAN CORPUSCULAR HEMOGLOBIN CONCENTRATION,[3],37.7 G/DL
same,MEAN CORPUSCULAR VOLUME,[3],63.03 fL
same,MONOCYTE,[3],0.33%
same,NEUTROPHIL,[3],10%
same,NUCLEATED RED BLOOD CELLS,[3],0 /100WBC
same,PLATELET COUNT,[3],1263 x10E3/uL
same,ALANINE AMINOTRANSFERASE,[3],47.67 u/L
same,ALBUMIN,[3],4.13 G/DL
same,ALKALINE PHOSPHATASE,[3],345 u/L
same,ASPARTATE AMINOTRANSFERASE,[3],82.33 u/L
same,BLOOD UREA NITROGEN,[3],15.33 mg/dL
same,CARBON DIOXIDE,[3],27.33 mmol/L
same,CHLORIDE,[3],103 MEQ/L
same,CHOLESTEROL,[3],60.67 mg/dL
same,CREATINE PHOSPHOKINASE,[3],172.67 u/L
same,CREATININE,[3],0.19 mg/dL
same,GLUCOSE,[3],170.33 mg/dL
same,LACTATE DEHYDROGENASE,[3],114 u/L
same,LIPASE,[3],8 u/L
same,PHOSPHORUS,[3],12.83 mg/dL
same,POTASSIUM,[3],5.99 MEQ/L
same,SODIUM,[3],145.83 MEQ/L
same,TOTAL BILIRUBIN,[3],0.2 mg/dL
same,TOTAL PROTEIN,[3],6.17 G/DL
same,URIC ACID,[3],1.33 mg/dL
